Laboratory results as given in patent publication EP3064205A1, “Therapeutic use of isomeric forms of 2-(4-chlorophenyl)quinolin-4-yl)(piperidin-2-yl)methanol” (Glionova AB, priority 2015, dated 2016).

What was measured:
Panc-1 cells = assay: APH cell viability assay, 3D culture; format: cell-based, human
Excerpt: The following well-characterized human pancreatic ductal adenocarcinoma cell lines (ATCC) were used: HPAF II, BxPC-3, MIA-PaCa2 and Panc-1. These cell lines were generated from patient-derived tumors and are widely used model system to study pancreatic cancer (HPAF II: Kim YW, et al. Pancreas 4: 353-362, 1989; BxPC-3: Tan MH, et al. Cancer Invest. 4: 15-23, 1986; MIA-PaCa2: Yunis AA, et al. Int. J. Cancer 19: 128-135, 1977; Pacn-1: Lieber M, et al. Int. J. Cancer 15: 741-747, 1975).
(§1) Panc-1, HPAF II, KPC pancreatic adenocarcinoma cell lines were trypsin-treated and counted using the Casy Cell Counter according to the manufacturer's recommendations (GmbH). Subsequently, they were seeded onto round bottom non-tissue culture treated 96 well-plates (Falcon, BD NJ, USA) at a concentration of 2500 cells/well in 100 µl DMEM-F12 or phenol red-free DMEM-F12 medium, containing 10% FCS and supplemented with 20% methyl cellulose stock solution. For preparation of methylcellulose stock solution, 6 grams of methylcellulose powder (M0512, Sigma-Aldrich) was autoclaved in a 500 ml flask containing a magnetic stirrer (the methylcellulose powder is resistant to this procedure). The autoclaved methylcellulose was dissolved in preheated 250 ml basal medium (60°C) for 20 min (using the magnetic stirrer). Thereafter, 250 ml medium (room temperature) containing double amount of FCS (20%) was added to a final volume of 500 ml and the whole solution mixed overnight at 4°C. The final stock solution was aliquoted and cleared by centrifugation (5000g, 2 h, room temperature). Only the clear highly viscous supernatant was used for the spheroid assay (about 90-95% of the stock solution). For spheroid generation, 20% of the stock solution and 80% culture medium corresponding to final 0.24% methylcellulose was used. Spheroids were grown under standard culture conditions (5% CO2, at 37°C).
For 2D culture, cells were seeded on flat bottom 96 well plates (Costar) at a concentration of 2500 cells/well in 100 µl phenol red-free RPMI-F12 medium containing 10% FCS. For 3D culture, cells were seeded according to the description for spheroid preparation in phenol-free medium. […] The viability rate was calculated as a percentage of the untreated cells. All data were expressed as the mean ± SD of at least 8 replicates. To confirm the reliability of the APH assay on 2D culture, cell viability was measured using CellTiter-Glo assay (Promega).
The APH assay, which measures the activity of acidic phosphatase in the cells, was optimized for 3D cultures as follows. […] Absorbance at 405nm was measured within 10 minutes using a FluoStar OPTIMA plate reader (BMG Labtech). Viability rate was calculated as per cent of CTR untreated cells. All data are expressed as the mean ± SD of at least 8 replicates.

KPC cells = assay: ATP viability assay (CellTiter-Glo), 3D culture, automatic drug screen; format: cell-based, mouse; details: 72h
Description: as §1, with “Only the clear highly viscous supernatant was used for the spheroid assay (about 90-95% of the stock solution). For spheroid generation, 20% of the stock solution and 80% culture medium corresponding to final 0.24% methylcellulose was used. Spheroids were grown under standard culture conditions (5% CO2, at 37°C).” left out
In order to confirm the results presented in figure 1, S1 was further tested in 2 different cell lines in 3D culture format, using an automatic drug screening assay. The effect of Vacquinol-1 RS (S1) on cell viability was measured after 72h using the CellTiter-Glo assay (Promega) adapted for 3D culture.

How did the vacuole formation (Panc-1 cells; Panc-1, 30 µM (data not shown)) turn out when `O[C@H](c1cc(-c2ccc(Cl)cc2)nc2ccccc12)[C@@H]1CCCCN1` [S1, (R)-(2-(4-chlorophenyl)quinolin-4-yl)((S)-piperidin-2-yl)methanol] was run?
The vacuole formation was “vacuoles were formed”.

What about the “effect on cell viability” value (Panc-1 cells; Panc-1, 3D culture, 30 µM, 24h) of the same molecule?
The value was “did not affect cells”.

And the “decrease in cell viability” value (Panc-1 cells; Panc-1, 3D culture, 30 µM, 48h)?
Its value is 55%.

What about the “decrease in cell viability” value (Panc-1 cells; Panc-1, 3D culture, 30 µM, 72h) of the same molecule?
Its value is 64%.

What about the reduction in viability (KPC cells; 10 µM) of the same molecule?
Its reduction in viability is about 50%.

What about the “viability compared to control” value (KPC cells; 30-15 µM) of the same molecule?
The value was “complete loss of viability”.
